Assay results as given in patent US11208433B2, “Peptide for inhibiting skin inflammation and composition for preventing or treating skin inflammation containing the same” (AVIXGEN Inc., priority 2017, dated 2021).

Experiments:
[1] = test system: atopic dermatitis animal model; assay: Ear thickness measurement in atopic dermatitis animal model; assay type: in vivo, NC/Nga mouse; conditions: FIG. 2; for ear thickness compared with induced control group (group 2): 7th and 14th day after administration, tetrapeptide 0.622, ACP-tetrapeptide 4.987, prednisolone 50 μg/ear once a day, p<0.001 or p<0.01
Protocol: (§1) After the ear auricle of the NC/Nga mouse was shaved with a razor, the epilating agent was applied in an appropriate amount for the complete depilation. After the epilating agent was wiped off, Then, 100 mg of the AD-inducing reagent shown in Table 2 as below was uniformly applied to the ear auricle using a micropipette tip, thereby inducing atopic dermatitis for the first time. After shaving with a razor for necessary, 150 μL of a 4% SDS aqueous solution was uniformly applied to the ear auricle using a micropipette, dried with a cold air using a dryer, and air-dried for about 2 to 3 hours. Then, 100 mg of the same AD-inducing reagent was uniformly applied to the ear auricle using a micropipette tip, thereby inducing atopic dermatitis after 2 times. All treatments were carried out twice a week to be 6 times for a total of 3 weeks, thereby producing atopic dermatitis animal model. The mice of groups 2 to 5 were obtained by the atopic dermatitis animal model prepared in Experimental Method 3 as described above. The experimental substance and the control substance were uniformly applied to the ear auricle using a micropipette tip. From the day of the experimental substance administration (Day 0) to the day of the autopsy (Day 14), they were administered once a day for 2 weeks. Ear thickness was measured for each individual by calipers, and the ear area was photographed. Ear thickness measurement and photographing were performed once a week on the day of starting the experimental substance administration and thereafter.

[2] = test system: atopic dermatitis animal model; assay: Visual pathological evaluation (skin clinical index) in atopic dermatitis animal model; assay type: in vivo, NC/Nga mouse; conditions: 14th day after administration; p<0.05; FIG. 6
Protocol: as §1, with “[…] For each individual, 0 (none), 1 (mild), 2 (moderate) and 3 (severe)” for “From the day of the experimental substance administration (Day 0) to the day of the autopsy (Day 14), they”, “recorded” for “administered once a day”, “erythema/hemorrhage, edema, excoriation/erosion” for “2 weeks. Ear thickness was measured for each individual by calipers,”, “scaling/dryness. […]” for “the ear area was photographed. Ear thickness measurement and photographing were performed once a week on the day of starting the experimental substance administration and thereafter.”

[3] = test system: atopic dermatitis animal model; assay: Histopathological examination of ear epidermis and dermis (H&E scoring); assay type: in vivo, NC/Nga mouse; conditions: infiltration by inflammatory cells, p<0.05, FIGS. 8 and 9; for epidermis score level compared with group 2: hypertrophy, hyperkeratosis
Protocol: After the ear auricle of the NC/Nga mouse was shaved with a razor, the epilating agent was applied in an appropriate amount for the complete depilation. After the epilating agent was wiped off, Then, 100 mg of the AD-inducing reagent shown in Table 2 as below was uniformly applied to the ear auricle using a micropipette tip, thereby inducing atopic dermatitis for the first time. After shaving with a razor for necessary, 150 μL of a 4% SDS aqueous solution was uniformly applied to the ear auricle using a micropipette, dried with a cold air using a dryer, and air-dried for about 2 to 3 hours. Then, 100 mg of the same AD-inducing reagent was uniformly applied to the ear auricle using a micropipette tip, thereby inducing atopic dermatitis after 2 times. All treatments were carried out twice a week to be 6 times for a total of 3 weeks, thereby producing atopic dermatitis animal model. The mice of groups 2 to 5 were obtained by the atopic dermatitis animal model prepared in Experimental Method 3 as described above. The experimental substance and the control substance were uniformly applied to the ear auricle using a micropipette tip. From the day of the experimental substance administration (Day 0) to the day of the autopsy (Day 14), they were administered once a day for 2 weeks. On the day of the autopsy, ears were removed for the histopathological examination and fixed in 10% neutral buffered formalin solution. The fixed tissues were subject to the general tissue treatment such as reprofiling, dehydration, paraffin embedding, and dissection, thereby preparing specimens for histopathological examination. Then, hematoxylin and eosin (H & E) and TUNEL assays were performed on histopathologic specimens, and the light microscopy (Olympus BX53, Japan) was used to observe histopathologic changes. In the histopathologic evaluation using hematoxylin and eosin staining slides, in order to compare the degree of the lesion with the induced control group, the most severe lesion was selected, and then the hypertrophy, hyperkeratosis and infiltration by inflammatory cells were evaluated in the epidermis. In the dermis, the infiltration by inflammatory cells was evaluated. Scoring criteria are the same as 0 (no symptoms), 1 (mild), 2 (moderate), and 3 (severe) (Taniguchi Y et al 2003).

IgE = assay: ELISA analysis of serum IgE in atopic dermatitis animal model; conditions: day of autopsy (Day 14)
histamine = assay: ELISA analysis of serum histamine in atopic dermatitis animal model; assay type: in vivo, NC/Nga mouse; conditions: day of autopsy (Day 14)
Protocol: (§2) After the ear auricle of the NC/Nga mouse was shaved with a razor, the epilating agent was applied in an appropriate amount for the complete depilation. After the epilating agent was wiped off, Then, 100 mg of the AD-inducing reagent shown in Table 2 as below was uniformly applied to the ear auricle using a micropipette tip, thereby inducing atopic dermatitis for the first time.
(§3) After shaving with a razor for necessary, 150 μL of a 4% SDS aqueous solution was uniformly applied to the ear auricle using a micropipette, dried with a cold air using a dryer, and air-dried for about 2 to 3 hours. Then, 100 mg of the same AD-inducing reagent was uniformly applied to the ear auricle using a micropipette tip, thereby inducing atopic dermatitis after 2 times. All treatments were carried out twice a week to be 6 times for a total of 3 weeks, thereby producing atopic dermatitis animal model.
(§4) The mice of groups 2 to 5 were obtained by the atopic dermatitis animal model prepared in Experimental Method 3 as described above.
(§5) The experimental substance and the control substance were uniformly applied to the ear auricle using a micropipette tip. From the day of the experimental substance administration (Day 0) to the day of the autopsy (Day 14), they were administered once a day for 2 weeks.
On the day of the autopsy, blood samples were collected from the abdominal vein using a syringe. The serum isolated from the blood was analyzed for IgE and histamine using an ELISA kit.

[4] = test system: atopic mouse skin tissues; assay: Immunohistochemical staining of atopic mouse skin tissue (angiogenic marker, inflammatory cells, keratin); assay type: in vivo, NC/Nga mouse
Protocol: as §2, §3, §4, §5
Atopy mouse skin tissues were immersed in Xylene three times for 5 minutes, 100% ethanol for 2 minutes, 95% ethanol for 2 minutes, 90% ethanol for 2 minutes, 70% ethanol for 2 minutes and D.W. for 2 minutes to remove paraffin and to perform hydration. After washing with PBS, they were treated with 0.2% Triton X-100 to increase cell permeability. After re-washing with PBS, they were reacted with blocking solution, 3% bovine serum albumin, for 1 hour. For inflammatory cells and keratin staining, they were reacted with F4/80 (sc-377009, Santa Cruz) and cytokeratin (NB600-579, NOVUSBIO) antibodies, respectively, at room temperature for 2 hours. After washing with PBS, they were treated with Texas Red (ab6787, Abcam) secondary antibody and reacted at room temperature for 60 minutes. The mounting solution was dropped on the tissue of the slide. Then, the tissue was covered with a cover slide, and the sample was observed under a fluorescence microscope. For analysis of the degree of angiogenesis, the atopic skin tissue was reacted with FITC-conjugated isolectin B4 (L2895, Sigma), a blood vessel marker at room temperature for 2 hours. The mounting solution was dropped on the tissue of the slide. Then, the tissue was covered with a cover slide, and the sample was observed under a fluorescence microscope
The mouse skin tissues stained with the respective markers were photographed using a fluorescence microscope (DMil, Leica, Germany), and fluorescence intensities were quantitatively analyzed using an ImageJ program (NIH, Bethesda, Md., USA).

[5] = test system: VE-cadherin (adherens junction); assay: Recovery of VE-cadherin broken by VEGF in HUVEC (confocal immunofluorescence); assay type: cell-based, Human; conditions: peptide pretreatment 30 minutes, VEGF 20 ng/ml 1 hour, FIGS. 16 and 17
Protocol: (§6) HUVECs were starved with M199 media supplemented with 1% FBS for 4 hours, inoculated on a 24-well plate containing glass at the number of 1×10^5 cells, and cultured for 24 hours to attach the cells to the glass. HUVECs were pretreated with the acetylated tetrapeptide and the non-acetylated tetrapeptide (—Ac) for 30 minutes and treated with VEGF at a concentration of 20 ng/ml for 1 hour. Thereafter, the cells were washed three times with PBS, fixed in 3.7% formaldehyde for 20 minutes, and treated with PBS containing 0.2% Triton X-100 to increase […] permeability. After blocking with 3% BSA for 1 hour, they were reacted with VE-cadherin (adherens junction) and ZO-1 (tight junction) antibodies at room temperature for 2 hours and washed three times with PBS. They were treated with Cy3 secondary antibodies, reacted at room temperature for 1 hour, washed twice with PBS, and stained with DAPI for 10 minutes. The huvec-attached glass was removed and mounted on a sliding glass.

ZO-1 (tight junction) = assay: Recovery of ZO-1 broken by VEGF in HUVEC (confocal immunofluorescence); assay type: cell-based, Human; conditions: peptide pretreatment 30 minutes, VEGF 20 ng/ml 1 hour, FIGS. 18 and 19
Protocol: as §6

Compound | ear thickness compared with induced control group (group 2) [1] | scaling/dryness level compared with group 2 [2] | epidermis score level compared with group 2 [3] | dermis score level compared with group 2 [3] | IgE level compared with group 2 (induced control) (IgE; p<0.001 or p<0.01, FIG. 7) | ear thickness compared with normal control group (group 1) ([1]; 14th day after administration, p<0.001) | histamine level compared with prednisolone treated group (histamine; FIG. 7) | histamine level compared with group 2 (induced control) (histamine; p<0.001 or p<0.01, FIG. 7) | angiogenesis (Isolectin B4 staining) ([4]; atopic mouse skin tissue, also similar to prednisolone treated group, FIG. 10) | inflammatory cell inflow (F4/80 staining) ([4]; atopic mouse skin tissue, also similar to prednisolone treated group, FIG. 11) | keratinization and fibrosis (cytokeratin staining) ([4]; atopic mouse skin tissue, also similar to prednisolone treated group, FIG. 12) | anti-atopic effect compared with prednisolone ([4]; treatment amount having a molar ratio lower than 1000 times that of prednisolone, FIG. 13) | damage level of VE-cad caused by VEGF [5] | damage level of ZO-1 caused by VEGF (ZO-1 (tight junction)) | IgE level compared with prednisolone treated group (IgE; FIG. 7) | IgE level compared with normal control group (IgE; p<0.001 or p<0.01, FIG. 7)
C[C@]12C=CC(=O)C=C1CC[C@@H]1[C@@H]2[C@@H](O)C[C@@]2(C)[C@H]1CC[C@]2(O)C(=O)CO [Prednisolone, prednisolone, reference compound] | significantly thinner | significantly lower | significantly lower | significantly lower | significantly lower |  |  |  |  |  |  |  |  |  |  | 
RLYE [Tetrapeptide] | significantly thinner |  | significantly lower | significantly lower | significantly lower | significantly thicker | lower than that of the prednisolone treated group | significantly lower | lower than that of the inducted control group | lower than that of the inducted control group | lower than that of the inducted control group | superiority to prednisolone | recovered to a level similar to that of the control group without VEGF treatment | recovered to a level similar to that of the control group without VEGF treatment | lower than that of the prednisolone treated group | significantly higher
Tetrapeptide (—Ac): non-acetylated tetrapeptides (RLYE) |  |  |  |  |  |  |  |  |  |  |  |  | recovered to a level similar to that of the control group without VEGF treatment | recovered to a level similar to that of the control group without VEGF treatment |  | 
